Source: patent US12018281B2, “Cardiomyocyte maturation promoter” (Kyoto University, priority 2018, dated 2024)

Test system: cardiomyocytes derived from double knock-in human iPS cell lines (EmGFP at TNNI1, mCherry at TNNI3)
Assay: TNNI3-mCherry reporter expression by anti-mCherry immunostaining and high contents screening (Experimental Example 1)
Format: cell-based
Conditions: 1 μM test compound added on 3rd and 6th culture days, measured on 8th culture day; Alexa 647 (anti-mCherry); average of n=3; control well (no addition) 797
Method: (§1) For detection of cardiomyocyte maturation, double knock-in human iPS cell lines, in which reporter protein sequences, EmGFP (Sequence Number 1) and mCherry (Sequence Number 2) were inserted into gene loci for TNNI1 and TNNI3, respectively, were prepared (the human iPS cells were prepared from episomal vector (loaded gene; OCT3/4, KLF4, SOX2, L-MYC, LIN28, mouse p53DD) using PBMC (LP_167, Sample ID:20130318) purchased from CTL (reference literature; Okita K, et al. Stem Cells. 2012 Nov. 29. doi: 10.1002/stem.1293)).
(§2) The maintenance culture of the above-mentioned reporter iPS cell lines was carried out by a conventional method (Okita K, et al. Stem Cells. 2012 Nov. 29. doi: 10.1002/stem.1293).
For differentiation induction into cardiomyocytes, the reporter iPS cell lines were treated with 0.5×TrypLE select (Life Technologies, diluted in ½ with 0.5 mM EDTA/PBS) for 4 to 5 minutes, and the cells were exfoliated using a cell scraper (IWAKI), and then dissociated into the single cell by pipetting. The medium was removed by centrifugation (1,000 rpm, 5 min), and the obtained cells were seeded on a bioreactor (ABLE) by 1×10^7 cells per 30 mL of the bioreactor, and then cultured in a medium prepared by adding 1% L-glutamine, transferrin 150 μg/mL, ascorbic acid 50 μg/mL (Sigma), monothioglycerol 4×10^−4 M, 10 μM Rock inhibitor (Y-27632), 2 ng/mL BMP4 (R&D) and 0.5% Matrigel (Growth Factor Reduced) to a medium after removal of solution C from StemFit AK02 (AJINOMOTO AK02, 400 mL of solution A and 100 mL of B solution, total 500 mL), at 37° C., under 5% oxygen condition (55 rpm, stirred suspension culture method) to form embryoid bodies (0 day).
Next day (1st day), 9 μL (final concentration 3 ng/mL) of […], 15 μL (final concentration 5 ng/mL) of 10 μg/mL bFGF and […] (final concentration 10 ng/mL) of 10 μg/mL BMP4 were added to the bioreactor, and the cells were cultured at 37° C. for additional 2 days, under 5% oxygen condition.
Then (3rd day), the obtained embryoid bodies were collected in a 50 mL centrifuge tube, and then subjected to centrifugation (200 g, 1 min). The medium was removed, and the embryoid bodies were cultured in a medium prepared by adding 1% L-glutamine, transferrin 150 μg/mL, ascorbic acid 50 μg/mL (Sigma), monothioglycerol 4×10^−4 M, 10 ng/mL VEGF, 1 μM IWP-3, 0.6 μM dorsomorphin and 5.4 μM SB431542 to a medium after removal of solution C from StemFit AK02 (AJINOMOTO AK02, 400 mL of solution A and 100 mL of B solution, total 500 mL), at 37° C. for 3 days, under 5% oxygen condition (55 rpm, stirred suspension culture method).
Then (6th day), the bioreactor was left to stand to precipitate the embryoid bodies, and 80 to 90% of the medium was removed. A medium prepared by adding 1% L-glutamine, transferrin 150 μg/mL, ascorbic acid 50 μg/mL (Sigma), monothioglycerol 4×10^−4 M and 5 ng/mL VEGF to a medium after removal of solution C from StemFit AK02 (AJINOMOTO AK02, 400 mL of solution A and 100 mL of B solution, total 500 mL) was added to the bioreactor so that the total volume became 30 mL, and the embryoid bodies were cultured for 8 days, at 37° C., under 5% oxygen condition (55 rpm, stirred suspension culture method). During the culture, the medium was replaced with a medium under the same conditions every 2 to 3 days.
14th Day after the start of the differentiation induction, the embryoid bodies were treated with 2 mg/mL collagenase type I (Sigma) for 2 hr, and then with 0.25% trypsin/EDTA (Invitrogen) for 10 min. 50% FBS/IMDM (Thermo Fisher Science) was added thereto, and the embryoid bodies were dissociated into the single cell by pipetting, and then subjected to centrifugation (1,000 rpm, 5 minutes). […]

Compared with COc1ccc(/C=C\c2cc(OC)c(OC)c(OC)c2)cc1O [Example No. 1, 2-methoxy-5-((Z)-2-(3,4,5-trimethoxyphenyl)vinyl)phenol], COc1cccc(-c2cc3ccc(N(C)C)cc3c(N)n2)c1 [Example No. 6, 3-(3-methoxyphenyl)-N7,N7-dimethylisoquinoline-1,7-diamine] is lower in “average fluorescent intensity (at 1 μM)” value: 1381 for the first, 1305 for the second.

Going from CCn1nnc2cc(COC(=O)Nc3sc(-c4ccc(C)cc4OC)nc3C)ccc21 [Example No. 2, (1-ethyl-1H-benzotriazol-5-yl)methyl (2-(2-methoxy-4-methylphenyl)-4-methyl-1,3-thiazol-5-yl)carbamate] to COC(=O)c1c(C)[nH]c(C)c1C(=O)c1ccccc1Cc1ccccc1 [Example No. 7, methyl 4-(2-benzylbenzoyl)-2,5-dimethyl-1H-pyrrole-3-carboxylate], the “average fluorescent intensity (at 1 μM)” value falls from 1331 to 1294.

First: CC[C@]1(O)C[C@H]2CN(CCc3c([nH]c4ccccc34)[C@@](C(=O)OC)(c3cc4c(cc3OC)N(C=O)[C@H]3[C@@](O)(C(=O)OC)[C@H](OC(C)=O)[C@]5(CC)C=CCN6CC[C@]43[C@@H]65)C2)C1 [Example No. 3, (2′beta)-22-oxovincaleukoblastine]
Second: COc1ccc(C[C@H](NC(=O)[C@H](C)NC(=O)CN2CCOCC2)C(=O)N[C@@H](Cc2ccccc2)C(=O)[C@]2(C)CO2)cc1 [Example No. 5, 4,5-anhydro-1,2-dideoxy-4-methyl-2-((N-(morpholin-4-ylacetyl)-L-alanyl-O-methyl-L-tyrosyl)amino)-1-phenyl-L-threo-pent-3-ulose]
The “average fluorescent intensity (at 1 μM)” value of the first is lower: 1710 for the first, 1791 for the second.

Compared with Clc1ccc(CCc2nc3cc(-c4ccco4)cnc3[nH]2)cc1 [Example No. 4, 2-(2-(4-chlorophenyl)ethyl)-6-(2-furyl)-3H-imidazo[4,5-b]pyridine], Nc1ccc(-c2nc3cc(-c4nc5cc(N)ccc5[nH]4)ccc3[nH]2)cc1 [Example No. 8, 2′-(4-aminophenyl)-1H,1′H-2,5′-bibenzimidazol-5-amine] is higher in “average fluorescent intensity (at 1 μM)” value: 1125 for the first, 1150 for the second.

Test system: embryoid bodies/cardiomyocytes derived from double knock-in human iPS cell lines (EmGFP at TNNI1, mCherry at TNNI3)
Assay: mCherry expression in TNNI1+ cells by flow cytometry (Experimental Example 2)
Format: cell-based
Conditions: 40 nM, 10th to 16th day of differentiation, controls 7.4 (no addition), 10.2 (0.1% DMSO)
Method: as §1, §2
For differentiation induction into cardiomyocytes, the reporter iPS cell lines were treated with 0.5×TrypLE select (Life Technologies, diluted in ½ with 0.5 mM EDTA/PBS) for 4 to 5 minutes, and the cells were exfoliated using a cell scraper (IWAKI), and then dissociated into the single cell by pipetting. […]

CCn1nnc2cc(COC(=O)Nc3sc(-c4ccc(C)cc4OC)nc3C)ccc21 [Example No. 2, (1-ethyl-1H-benzotriazol-5-yl)methyl (2-(2-methoxy-4-methylphenyl)-4-methyl-1,3-thiazol-5-yl)carbamate] was tested, and the “mCherry+ (%)” value was 36.1%.
